Data taken from patent publication US5567716A, “Trans and cis traumatic acid salts having cicatrizant activity associated to bacteriostatic, antiviral, antibiotic or antifungal activity” (priority 1992, dated 1996).

Columns and labels:
[1] = Physical chemical characteristics: solubility in water and organic solvents
[2] = test system: Streptococcus Fecalis ATCC.291212; test: Antibacterial activity, diffusion method in agar-germs (2.a); type: cell-based; design: unit not given here
Description: (§1) In a Tryprone Soy Agar diffusion medium ATCC (American Type Culture Collection) standard bacterial strains are inoculated, preparing a final solution of 10^6 cfu/g (colony forming unities) of the following strains:
(§2) Every plate contains 20 ml of a medium where 2 equidistant wells having a standard diameter are Formed and in each of these wells […] of the above described bacterial solution are inoculated. 2 plates are prepared for every couple of compounds to be tested at different concentrations, and For every strain, and each of these plates is compared with a white (sterile demineralized water inoculum). After the inoculum, the plates are placed in the refrigerator to favour diffusion and temporaneously blocking bacterial growth.
(§3) The compounds hexadecyltrimethylammonium traumatate and benzyldimethylhexadecylammonium traumatare respectively versus hexadecyl trimethylammonium bromide and benzyldimethylhexadecylammonium chloride are solubilized in demineralized water to Form solutions at the concentrations: 0.1; 0.5; and 1%.
(§4) The antibacterial effect is evaluated by measuring bacterial diffusion halo around the well vs white (halo absence).

[3] = test system: Aspergillus Niger ATCC 16404; test: as above; type: cell-based; design: unit not given here
Description: as §1, §2, §3, §4

PS Cepacia ATCC.25416 = test: as above; type: cell-based; design: unit not given here
Description: as §1, §2, §3, §4

[4] = test system: Candida Albicans ATCC.10231; test: as above; type: cell-based; design: unit not given here
Description: as §1, §2, §3, §4

[5] = test system: Stafilococcus Epidermidis ATCC.14990; test: as above; type: cell-based; design: unit not given here
Description: as §1, §2, §3, §4

[6] = test system: Stafilococcus Aureus ATCC.65380; test: as above; type: cell-based; design: unit not given here
Description: as §1, §2, §3, §4

[7] = test system: Pseudomonas Aeruginosa ATCC.35422; test: as above; type: cell-based
Description: as §1, §2, §3, §4

E. Coli ATCC.35218 = test: as above; type: cell-based
Description: as §1, §2, §3, §4

PS Maltophila ATCC.13637 = test: as above; type: cell-based
Description: as §1, §2, §3, §4

3T3 fibroblasts = test: Cellular proliferation of 3T3 fibroblasts, neutral red colorimetry (1.1a); type: cell-based, Mice
Description: Experiments on 3T3 fibroblasts
Mice 3T3 fibroblasts cultures sown at a 40.000/ml concentration on plates having 6 wells in a DMEM culture medium enriched with 10% calf serum are used. After 24 hours culture, the 90 prepared wells are divided in order to allow the analyses of the compounds of the invention, every compound to be tested being used respectively at a concentration of 0.1, 1 and 10 μg/ml by subsequent evaluations after 48 and 72 hours of incubation.
Hexadecyltrimethylammoniun (ETA) traumatare: solubilized in water and brought to the desired final concentrations of 0.1. 1 and 10 μg/ml by progressive dilutions;
Ethanolamine traumatate: solubilized in water and brought to the final concentrations of 0.1, 1 and 10 μg/ml by progressive dilutions;
Traumatic acid: neutralized with sodium hydroxyde and solubilized in water, then brought to the final concentrations of 0.1, 1 and 10 μg/ml by progressive dilutions with the culture medium.
The compounds are added to the cells after 24 hours culture. The cells number is measured by colorimetry with the neutral red intravital stain after 24, 48, 72 hours of incubation.

SMILES	bacterial diffusion halo ([2]; sol. 0.1%)	bacterial diffusion halo ([2]; sol. 0.5%)	bacterial diffusion halo ([2]; sol. 1%)	bacterial diffusion halo ([3]; sol. 0.1%)	bacterial diffusion halo ([3]; sol. 0.5%)	bacterial diffusion halo ([3]; sol. 1%)	bacterial diffusion halo (PS Cepacia ATCC.25416; sol. 0.1%)	bacterial diffusion halo (PS Cepacia ATCC.25416; sol. 0.5%)	bacterial diffusion halo (PS Cepacia ATCC.25416; sol. 1%)	bacterial diffusion halo ([4]; sol. 0.1%)	bacterial diffusion halo ([4]; sol. 0.5%)	bacterial diffusion halo ([4]; sol. 1%)	bacterial diffusion halo ([5]; sol. 0.1%)	bacterial diffusion halo ([5]; sol. 0.5%)	bacterial diffusion halo ([5]; sol. 1%)	bacterial diffusion halo ([6]; sol. 0.1%)	bacterial diffusion halo ([6]; sol. 0.5%)	bacterial diffusion halo ([6]; sol. 1%)	bacterial diffusion halo ([7]; sol. 0.1%)	bacterial diffusion halo ([7]; sol. 0.5%)	also measured
Clc1ccc(COC(C[n+]2cc[nH]c2)c2ccc(Cl)cc2Cl)c(Cl)c1.Clc1ccc(COC(C[n+]2cc[nH]c2)c2ccc(Cl)cc2Cl)c(Cl)c1.O=C([O-])/C=C/CCCCCCCCC(=O)[O-] (racemic) [miconazole trans-traumatate]																					organic solvent solubility ([1]; in ethanol): > 10000 µg/mL; solubility in water ([1]; water): > 10000 µg/mL
CCCCCCCCCCCCCCCC[N+](C)(C)Cc1ccccc1.[Cl-] [BMA Chloride, benzyldimethylhexadecylammonium chloride, reference compound]	12	14	15	13	16	19	12	15	15	13	15	16	15	18	19	17	22	22	n.h.	12	bacterial diffusion halo ([7]; sol. 1%): 14; bacterial diffusion halo (E. Coli ATCC.35218; sol. 0.1%): n.h.; bacterial diffusion halo (E. Coli ATCC.35218; sol. 0.5%): n.h.; bacterial diffusion halo (E. Coli ATCC.35218; sol. 1%): 13; bacterial diffusion halo (PS Maltophila ATCC.13637; sol. 0.1%): n.h.; bacterial diffusion halo (PS Maltophila ATCC.13637; sol. 0.5%): n.h.; bacterial diffusion halo (PS Maltophila ATCC.13637; sol. 1%): 15
CCCCCCCCCCCCCCCC[N+](C)(C)C.[Br-] [ETA Bromide, hexadecyltrimethylammonium bromide, reference compound]	20	22	22	19	22	22	18	19	22	19	24	25	20	22	22	21	24	24	n.h.	n.h.	bacterial diffusion halo ([7]; sol. 1%): n.h.; bacterial diffusion halo (E. Coli ATCC.35218; sol. 0.1%): n.h.; bacterial diffusion halo (E. Coli ATCC.35218; sol. 0.5%): 13; bacterial diffusion halo (E. Coli ATCC.35218; sol. 1%): 15; bacterial diffusion halo (PS Maltophila ATCC.13637; sol. 0.1%): n.h.; bacterial diffusion halo (PS Maltophila ATCC.13637; sol. 0.5%): 15; bacterial diffusion halo (PS Maltophila ATCC.13637; sol. 1%): 21
NCCO.O=C(O)/C=C/CCCCCCCCC(=O)O [ethanolamine traumatate, ethanolamine trans-traumatate]																					effect on cells proliferation (3T3 fibroblasts; 0.1 μg/ml, in words): able to affect cells proliferation according to a not statistically significant trend; effect on cellular proliferation (3T3 fibroblasts; 1 μg/ml, in words, ETA salt > ethanolamine salt = traumatic acid): able to increase cellular proliferation; cells numeration (colorimetric, neutral red) (3T3 fibroblasts; 24 hours of incubation, 0.1 (head: μg/ml), control 0.579 ± 0.021): 0.562 ± 0.013; cells numeration (colorimetric, neutral red) (3T3 fibroblasts; 24 hours of incubation, 1.0 (head: μg/ml), control 0.579 ± 0.021): 0.609 ± 0.033; cells numeration (colorimetric, neutral red) (3T3 fibroblasts; 24 hours of incubation, 10.0 (head: μg/ml), control 0.579 ± 0.021): 0.553 ± 0.027; cells numeration (colorimetric, neutral red) (3T3 fibroblasts; 48 hours of incubation, 0.1 (head: μg/ml), control 1.334 ± 0.050): 1.415 ± 0.106; cells numeration (colorimetric, neutral red) (3T3 fibroblasts; 48 hours of incubation, 1.0 (head: μg/ml), control 1.334 ± 0.050): 1.435 ± 0.082; cells numeration (colorimetric, neutral red) (3T3 fibroblasts; 48 hours of incubation, 10.0 (head: μg/ml), control 1.334 ± 0.050, ** p < 0.01 significant reduction): 1.415 ± 0.132; cells numeration (colorimetric, neutral red) (3T3 fibroblasts; 72 hours of incubation, 0.1 (head: μg/ml), control 2.360 ± 0.125): 2.382 ± 0.039; cells numeration (colorimetric, neutral red) (3T3 fibroblasts; 72 hours of incubation, 1.0 (head: μg/ml), control 2.360 ± 0.125): 2.463 ± 0.100; cells numeration (colorimetric, neutral red) (3T3 fibroblasts; 72 hours of incubation, 10.0 (head: μg/ml), control 2.360 ± 0.125, ** p < 0.01 significant reduction): 2.408 ± 0.085; time necessary for the cells to reach the confluence (3T3 fibroblasts; side control experiment, ETA and ethanolamine salts > traumatic acid): reduce the time normally necessary for the cells to reach the confluence; solubility ([1]; ethanol, organic solvent or mixture): > 10000 µg/mL; solubility ([1]; water): > 10000 µg/mL
